This note sets out measurements from paper PMC6797691, “Towards the understanding of the enzymatic cleavage of polyisoprene by the dihaem-dioxygenase RoxA” (AMB Express, 2019).

The structures appear in SMILES notation.

This assay concerns the target RoxA (RoxA-Wt, rubber oxygenase A) (Xanthomonas sp. 35Y, UniProt Q7X0P3). The settings on record: RoxA as isolated (oxygenated haem), pyridine 2 mM, pH 7; N-terminal haem iron, displaces bound dioxygen.

Sequence of RoxA (RoxA-Wt, rubber oxygenase A) (Q7X0P3 entry or part of it): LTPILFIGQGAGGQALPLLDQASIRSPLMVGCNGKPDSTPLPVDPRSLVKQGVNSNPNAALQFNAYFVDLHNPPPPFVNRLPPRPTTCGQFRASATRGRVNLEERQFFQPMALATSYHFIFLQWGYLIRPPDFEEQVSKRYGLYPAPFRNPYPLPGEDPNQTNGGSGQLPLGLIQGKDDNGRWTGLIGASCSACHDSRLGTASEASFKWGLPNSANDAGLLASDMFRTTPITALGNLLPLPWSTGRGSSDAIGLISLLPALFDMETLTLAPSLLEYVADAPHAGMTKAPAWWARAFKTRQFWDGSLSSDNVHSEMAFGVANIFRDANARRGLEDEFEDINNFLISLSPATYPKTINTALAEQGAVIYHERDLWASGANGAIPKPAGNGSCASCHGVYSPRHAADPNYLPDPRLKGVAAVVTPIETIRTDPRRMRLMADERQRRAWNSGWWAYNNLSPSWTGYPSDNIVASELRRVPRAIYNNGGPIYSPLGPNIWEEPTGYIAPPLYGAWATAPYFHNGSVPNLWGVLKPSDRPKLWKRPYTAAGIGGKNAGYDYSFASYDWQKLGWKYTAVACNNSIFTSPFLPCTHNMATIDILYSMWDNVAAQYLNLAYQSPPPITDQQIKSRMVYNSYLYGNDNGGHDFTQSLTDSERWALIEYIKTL

In the case of `c1ccncc1` [pyridine], the “UV-vis spectroscopy (549 nm band), EPR” value is recorded as “displacement of haem-bound dioxygen by N-heterocycles that then serve as artificial ligands to a ferrous haem”.
